In ChEMBL document CHEMBL5257121, “Discovery of arylsulfonamides as a novel class of allosteric integrase inhibitors with antiviral activity” (Bioorg Med Chem Lett, 2023):

Tested on: Human immunodeficiency virus 1
Test: Antiviral activity against early stage HIV-1 assessed as disruption of proviral integration
Assay type: functional, organism-based

Going from `COCC1(NS(=O)(=O)c2ccccc2-c2cccc(C(=O)Nc3ccc(OC)cc3)c2)CCCC1` to `COc1ccc(NC(=O)c2cncc(-c3ccccc3S(=O)(=O)NC(C)(C)C)c2)cc1`, the IC50 rises from 16.3 µM to 27.3 µM (1.7-fold).

Compared with `CC(C)(C)NS(=O)(=O)c1ccccc1-c1cccc(C(=O)Nc2ccc(CCC(=O)O)cc2)c1`, `COc1ccc(NC(=O)c2cncc(-c3c(C)cccc3S(=O)(=O)NC(C)(C)C)c2)cc1` is lower in IC50: over 42 µM for the first, 25.2 µM for the second.

With `Cc1ccc(-c2c([C@H](OC(C)(C)C)C(=O)O)c(C)nc3ccccc23)cc1C` the IC50 was 1.67 µM.

Tested on: Human immunodeficiency virus 1
Test: Selectivity ratio of IC50 for antiviral activity against early stage HIV-1 to IC50 for antiviral activity against late stage HIV-1
Assay type: functional

In order of rising “Ratio IC50” value:
1. COCC1(NS(=O)(=O)c2ccccc2-c2cccc(C(=O)Nc3ccc(OC)cc3)c2)CCCC1  2.3
2. COc1ccc(NC(=O)c2cncc(-c3ccccc3S(=O)(=O)NC(C)(C)C)c2)cc1  5.4
3. COc1ccc(NC(=O)c2cncc(-c3c(C)cccc3S(=O)(=O)NC(C)(C)C)c2)cc1  9.3
4. Cc1ccc(-c2c([C@H](OC(C)(C)C)C(=O)O)c(C)nc3ccccc23)cc1C  53.9

For `CC(C)(C)NS(=O)(=O)c1ccccc1-c1cccc(C(=O)Nc2ccc(CCC(=O)O)cc2)c1`, the “Ratio IC50” value was over 3.6.

Biological target: not listed separately
Test: Allosteric inhibition of LEDGF binding to HIV integrase by InLEAD assay
Set-up: species or system Human immunodeficiency virus

Compared with `COc1ccc(NC(=O)c2cncc(-c3cc(C)ccc3S(=O)(=O)NC(C)(C)C)c2)cc1`, `COc1ccc(NC(=O)c2cncc(-c3ccc(C)cc3S(=O)(=O)NC(C)(C)C)c2)cc1` is higher in IC50: 8.85 µM for the first, over 67.5 µM for the second. The first is the more potent here.

Compared with `COc1ccc(NC(=O)c2cncc(-c3cccc(C)c3S(=O)(=O)NC(C)(C)C)c2)cc1`, `COc1ccc(NC(=O)c2cncc(-c3c(C)cccc3S(=O)(=O)NC(C)(C)C)c2)cc1` is lower in IC50: over 67.5 µM for the first, 1.29 µM for the second. The second is the more potent here.

Compared with `COCC1(NS(=O)(=O)c2ccccc2-c2cccc(C(=O)Nc3ccc(OC)cc3)c2)CCCC1`, `COc1ccc(NC(=O)c2cccc(-c3ccccc3S(=O)(=O)NC3(C)CCC3)c2)cc1` is lower in IC50: over 67.5 µM for the first, 2.23 µM for the second. The second is the more potent here.

Compared with `CC(C)(C)NS(=O)(=O)c1ccccc1-c1cccc(C(=O)Nc2ccc(CCC(=O)O)cc2)c1`, `COC(=O)CCc1ccc(NC(=O)c2cccc(-c3ccccc3S(=O)(=O)NC(C)(C)C)c2)cc1` is 2.6-fold lower in IC50: 3.74 µM for the first, 1.45 µM for the second. The second is the more potent here.

`COc1ccc(NC(=O)c2cccc(-c3ccccc3S(=O)(=O)NC(C)(C)CC(C)(C)C)c2)cc1` and `COc1ccc(NC(=O)c2cccc(-c3ccccc3S(=O)(=O)NC(C)(C)C(C)(C)C)c2)cc1` cannot be ordered by IC50: over 67.5 µM for the first, over 22.5 µM for the second.

Compared with `CC(C)(C)NS(=O)(=O)c1ccccc1-c1cncc(C(=O)Nc2ccc(CCC(=O)NCCNC(=O)c3ccc4c(c3)C(=O)OC43c4ccc(O)cc4Oc4cc(O)ccc43)cc2)c1`, `COC(=O)C(Cc1ccccc1)NC(=O)CCc1ccc(NC(=O)c2cncc(-c3ccccc3S(=O)(=O)NC(C)(C)C)c2)cc1` (stereo not drawn) is 8.8-fold higher in IC50: 0.368 µM for the first, 3.22 µM for the second.

Going from `COc1ccc(NC(=O)c2cc(-c3ccccc3S(=O)(=O)NC(C)(C)C)ccc2F)cc1` to `COc1ccc(NC(=O)c2cc(-c3ccccc3S(=O)(=O)NC(C)(C)C)ccc2Cl)cc1`, the IC50 rises from 2.81 µM to over 67.5 µM. The first is the more potent here.

`CC(C)(C)NS(=O)(=O)c1ccccc1-c1cncc(C(=O)Nc2ccc(CCC(=O)O)cc2)c1` and `CC(C)(C)NS(=O)(=O)c1ccccc1-c1cncc(C(=O)Nc2ccc(CCCC(=O)O)cc2)c1` are within 1.5-fold of each other in IC50: 1.29 µM for the first, 1 µM for the second.

Compared with `COc1ccc(NC(=O)c2cncc(-c3ccccc3S(=O)(=O)NC(C)(C)C)c2)cc1`, `COc1ccc(NC(=O)c2cccc(-c3ccccc3S(=O)(=O)NC(C)(C)C)c2)cc1` is 2.9-fold higher in IC50: 1.29 µM for the first, 3.69 µM for the second.

First: Cc1ccc(-c2c([C@H](OC(C)(C)C)C(=O)O)c(C)nc3ccccc23)cc1C
Second: Cc1ccc(NC(=O)c2cccc(-c3ccccc3S(=O)(=O)NC(C)(C)C)c2)c(C)c1
The IC50 of the first is 28-fold lower: 0.037 µM for the first, 1.05 µM for the second. The first is the more potent here.

Going from `COc1ccc(NC(=O)c2cccc(-c3ccccc3S(=O)(=O)NC(C)(C)C)c2)c(C)c1` to `CCC(C)(C)NS(=O)(=O)c1ccccc1-c1cccc(C(=O)Nc2ccc(OC)cc2)c1`, the IC50 rises from 1.91 µM to 17.3 µM (9.1-fold). The first is the more potent here.

Compared with `COc1ccc(NC(=O)c2cccc(-c3ccccc3S(=O)(=O)NC3(C)CC3)c2)cc1`, `COc1ccc(NC(=O)c2cc(-c3ccccc3S(=O)(=O)NC(C)(C)C)ccn2)cc1` is 1.6-fold lower in IC50: 5.97 µM for the first, 3.79 µM for the second.

Work on `COc1ccc(NC(=O)c2cccc(-c3ccccc3S(=O)(=O)NC(C)(C)C)n2)cc1` yielded an IC50 of over 33.8 µM.

Tested on: Human immunodeficiency virus 1
Test: Antiviral activity against HIV-1
Assay type: functional, organism-based

`COc1ccc(NC(=O)c2cncc(-c3cc(C)ccc3S(=O)(=O)NC(C)(C)C)c2)cc1` and `COc1ccc(NC(=O)c2cncc(-c3ccc(C)cc3S(=O)(=O)NC(C)(C)C)c2)cc1` are within 1.5-fold of each other in IC50: 15.6 µM for the first, 10.8 µM for the second.

Going from `COc1ccc(NC(=O)c2cncc(-c3cccc(C)c3S(=O)(=O)NC(C)(C)C)c2)cc1` to `COc1ccc(NC(=O)c2cncc(-c3c(C)cccc3S(=O)(=O)NC(C)(C)C)c2)cc1`, the IC50 falls from 16.1 µM to 1.4 µM (12-fold). The second is the more potent here.

`COCC1(NS(=O)(=O)c2ccccc2-c2cccc(C(=O)Nc3ccc(OC)cc3)c2)CCCC1` and `COc1ccc(NC(=O)c2cccc(-c3ccccc3S(=O)(=O)NC3(C)CCC3)c2)cc1` are within 1.5-fold of each other in IC50: 5.15 µM for the first, 5.79 µM for the second.

`CC(C)(C)NS(=O)(=O)c1ccccc1-c1cccc(C(=O)Nc2ccc(CCC(=O)O)cc2)c1` and `COC(=O)CCc1ccc(NC(=O)c2cccc(-c3ccccc3S(=O)(=O)NC(C)(C)C)c2)cc1` are within 1.5-fold of each other in IC50: 6.53 µM for the first, 4.91 µM for the second.

Going from `COc1ccc(NC(=O)c2cccc(-c3ccccc3S(=O)(=O)NC(C)(C)CC(C)(C)C)c2)cc1` to `COc1ccc(NC(=O)c2cccc(-c3ccccc3S(=O)(=O)NC(C)(C)C(C)(C)C)c2)cc1`, the IC50 rises from 2.91 µM to 27.7 µM (9.5-fold). The first is the more potent here.

Compared with `COc1ccc(NC(=O)c2cc(-c3ccccc3S(=O)(=O)NC(C)(C)C)ccc2F)cc1`, `COc1ccc(NC(=O)c2cc(-c3ccccc3S(=O)(=O)NC(C)(C)C)ccc2Cl)cc1` is higher in IC50: 9.43 µM for the first, over 42 µM for the second.

Compared with `COC(=O)C(Cc1ccccc1)NC(=O)CCc1ccc(NC(=O)c2cncc(-c3ccccc3S(=O)(=O)NC(C)(C)C)c2)cc1` (stereo not drawn), `CC(C)(C)NS(=O)(=O)c1ccccc1-c1cncc(C(=O)Nc2ccc(CCC(=O)O)cc2)c1` is 3.1-fold higher in IC50: 3 µM for the first, 9.31 µM for the second.

`COc1ccc(NC(=O)c2cncc(-c3ccccc3S(=O)(=O)NC(C)(C)C)c2)cc1` and `COc1ccc(NC(=O)c2cccc(-c3ccccc3S(=O)(=O)NC(C)(C)C)c2)cc1` are within 1.5-fold of each other in IC50: 7.93 µM for the first, 10.9 µM for the second.

`COc1ccc(NC(=O)c2cccc(-c3ccccc3S(=O)(=O)NC(C)(C)C)c2)c(C)c1` and `Cc1ccc(NC(=O)c2cccc(-c3ccccc3S(=O)(=O)NC(C)(C)C)c2)c(C)c1` are within 1.5-fold of each other in IC50: 5.03 µM for the first, 5.1 µM for the second.

`CCC(C)(C)NS(=O)(=O)c1ccccc1-c1cccc(C(=O)Nc2ccc(OC)cc2)c1` and `COc1ccc(NC(=O)c2cccc(-c3ccccc3S(=O)(=O)NC3(C)CC3)c2)cc1` are within 1.5-fold of each other in IC50: 7.19 µM for the first, 5.81 µM for the second.

Compared with `COc1ccc(NC(=O)c2cccc(-c3ccccc3S(=O)(=O)NC(C)(C)C)n2)cc1`, `COc1ccc(NC(=O)c2cc(-c3ccccc3S(=O)(=O)NC(C)(C)C)ccn2)cc1` is 1.8-fold lower in IC50: 11.2 µM for the first, 6.35 µM for the second.

Compound `CC(C)(C)NS(=O)(=O)c1ccccc1-c1cncc(C(=O)Nc2ccc(CCCC(=O)O)cc2)c1` has an IC50 of 7.86 µM.

Tested on: Human immunodeficiency virus 1
Test: Antiviral activity against late stage HIV-1 assessed as inhibition of viral replication
Assay type: functional, organism-based

In order of falling IC50:
1. CC(C)(C)NS(=O)(=O)c1ccccc1-c1cccc(C(=O)Nc2ccc(CCC(=O)O)cc2)c1  12 µM
2. COCC1(NS(=O)(=O)c2ccccc2-c2cccc(C(=O)Nc3ccc(OC)cc3)c2)CCCC1  7.15 µM
3. COc1ccc(NC(=O)c2cncc(-c3ccccc3S(=O)(=O)NC(C)(C)C)c2)cc1  5.09 µM
4. COc1ccc(NC(=O)c2cncc(-c3c(C)cccc3S(=O)(=O)NC(C)(C)C)c2)cc1  2.7 µM
5. Cc1ccc(-c2c([C@H](OC(C)(C)C)C(=O)O)c(C)nc3ccccc23)cc1C  0.031 µM
